Data published in paper PMC7075522 (ACS infectious diseases, 2016).

Experiments:
[1] = tested on: sera of 24 SARS-positive patients; type: binding, human
[2] = tested on: DENV in BHK-21 and NIH3T3 cells; conditions: cited from earlier work

Row | Substance | Immunoreactivity with sera [1] | ADE of DENV [2]
1 | LYQDVN [S597–602] | immunoreactive with the tested sera of 24 SARS-positive patients | –
2 | CPFLKQNEPEDIDCW | – | blocked this ADE in a dose-dependent manner
